According to US20080139638A1, “METHOD OF INCREASING GROWTH HORMONE SECRETION” (priority 2006, published 2008):
“Also recorded” adds a separate entry of the source. Like-named read-outs stand apart in the source and are kept apart here.

Assays:
growth hormone [1] = conditions: no exercise, cited from earlier work
growth hormone release = conditions: cited from earlier work
growth hormone [2] = conditions: 5.0 mg oral 60 minutes prior to bicycle exercise at 70% VO2max; cited from earlier work
growth hormone secretion = experiment: Serum growth hormone (ELISA/EIA) after oral melatonin supplementation 60 min before a single bout of resistance exercise (leg press); type: in vivo, human (healthy males)
Description: Thirty, healthy males who had partaken in regular resistance training for at least one year prior to the study were selected [n=30(22.72±3.28 years, 180.94±6.24 cm in height, and 82.08±9.18 kg in weight)] served as participants in the study. All of the participants passed a mandatory medical screening and were considered either as low or moderate risk or with no contradictions to exercise as outline by the American College of Sports Medicine (ACSM). Furthermore, the participants had not consumed any nutritional supplements, with the exclusion of vitamins, during a two month period prior the experiment.
Participants were matched by relative strength level (strength/body weight) and then randomly assigned to one of three different protocols. The supplement protocol consisted of a double-blind with groups receiving either 0.5 mg or 5.0 if melatonin (N-Acetyl-5-methoxytryptamine) or 1.0 mg of dextrose as a placebo. Participants were allowed a light breakfast at 8:00 am, wherein they were asked to record the consumed items, and then were required to fast until 2 pm. Seventy-five minutes prior to each exercise session, (12:30 pm), an intravenous cannula was inserted into a foreman vein. At 60 minutes prior to the exercise session, a baseline blood sample was taken and the participant orally received a supplement of placebo according top that outlined above. During the 60 minutes prior to exercise, the participants were required to rest in a supine position and blood samples were taken every 15 minutes up to the initiation of the resistance exercise. The leg press exercise consisted of 7 sets of 7 slow repetitions at 85% of the weight of the respective participant's one repetition maximum. Each set was preformed over the course of 30 seconds followed by 150 seconds of rest. The entire resistance exercise session was 21 minutes in duration.
Venous blood samples were obtained into 10 ml vacutainer tubes via a 20 gauge intravenous catheter inserted into a foreman vein after the subcutaneous injection of a topical anesthetic (2% Xylocaine). Following the five hour fast, blood samples were obtained at 15-minute intervals commencing 60 minutes prior to the resistance exercise session and then at 15-minute intervals for 120 minutes following the resistance exercise session. Blood samples were allowed to stand for 10 minutes at room temperature and then centrifuged at 2,400 rpm for 10 minutes. The serum was then separated and stored at (−)20° C. until analysis.
Using enzyme-linked immunosorbent assays (ELISA), and enzyme-immunosorbent assays (EIA), serum samples were assayed for growth hormone (Diagnostics Systems Laboratories, Webster, Tex.) using a Wallac Victor-1420 microplate reader from Perkin-Elmer Life Sciences. Boston, Mass. at either 450 or 405 nm respectively. An ultra-sensitive assay with a lower detection limit of 0.66 pg/ml was used to determine the levels of growth hormone without any detectable interference of circulation glycoproteins, GH-dependent peptide hormones, or growth hormone binding protein.
Statistical analyses were performed using factorial analysis of variance (ANOVA) with repeated measures for each criterion value. Pairwise comparisons were used to differentiate significant differences among the three groups. All statistical procedures were performed using SPSS 11.0 software and a probability level of <0.05 was adopted throughout.
Short half-life hormones which are highly sensitive to diurnal variations, such as growth hormone, display great variability in the baseline values as was observed. As such, peak serum hormone responses before and after resistance exercise were subtracted from the baseline values of each participant in order to determine the increase in the growth hormone resulting from the treatments.

COc1ccc2[nH]cc(CCNC(C)=O)c2c1 [melatonin, N-Acetyl-5-methoxytryptamine]
plasma growth hormone concentrations (growth hormone [1]; 0.5 mg oral): significant increase
time of peak plasma growth hormone values (growth hormone [1]; 0.5 mg oral): 60 min
plasma growth hormone concentrations (growth hormone [1]; 5.0 mg oral): significant increase
time of peak plasma growth hormone values (growth hormone [1]; 5.0 mg oral): 60 min
effect on basal growth hormone levels (growth hormone release; 0.4 mg/kg intravenous): have been shown to have an effect
effect on basal growth hormone levels (growth hormone release; 1 g oral): have been shown to have an effect
effect on the 24-hr profile of growth hormone concentration (growth hormone release; small doses, less than 2 mg, oral): have not be shown to affect
growth hormone compared to placebo, area under the curve (growth hormone [2]): significant increases
time of growth hormone peak following exercise (growth hormone [2]): 30 min
fold increase in serum growth hormone relative to placebo (growth hormone secretion; 0.5 mg melatonin oral 60 min prior to exercise, post-exercise period): approximately 3.16 fold
serum growth hormone levels compared to placebo (in words) (growth hormone secretion; 0.5 mg melatonin oral, post-workout period): statistically significant (p=0.045) elevations
serum growth hormone levels compared to placebo (in words) (growth hormone secretion; 0.5 mg melatonin oral, pre-exercise period): no statistical difference; also recorded: no significant increase
increase in growth hormone of the 0.5 mg group compared to the 5.0 mg group (in words) (growth hormone secretion; 0.5 mg vs 5.0 mg melatonin oral, post-exercise): significantly greater increase
serum growth hormone levels compared to placebo (in words) (growth hormone secretion; 5.0 mg melatonin oral, post-workout period): statistically significant (p=0.045) elevations
serum growth hormone levels compared to placebo (in words) (growth hormone secretion; 5.0 mg melatonin oral, pre-exercise period): increased relative to placebo
fold increase in serum growth hormone relative to placebo (growth hormone secretion; 5.0 mg melatonin oral, pre-exercise period, peak standardized to baseline): ~2.35 fold
